Reference: PMC3914206

Legend:
Format in all cases: binding
panel of 442 kinases [1] = target: T1, panel of 442 kinases (Homo sapiens, UniProt O00750); conditions: Compound Concentration 10 µM
T1 construct: purchased KINOMEscan
Text: (§1) We assessed the selectivity of members of this scaffold using the KINOMEscan methodology across a near comprehensive panel of 442 kinases [[18,27]].

panel of 442 kinases [2] = target: T2, panel of 442 kinases (Homo sapiens, UniProt O60331); conditions: Compound Concentration 10 µM
T2 construct: purchased KINOMEscan
T2 sequence (O60331 whole entry): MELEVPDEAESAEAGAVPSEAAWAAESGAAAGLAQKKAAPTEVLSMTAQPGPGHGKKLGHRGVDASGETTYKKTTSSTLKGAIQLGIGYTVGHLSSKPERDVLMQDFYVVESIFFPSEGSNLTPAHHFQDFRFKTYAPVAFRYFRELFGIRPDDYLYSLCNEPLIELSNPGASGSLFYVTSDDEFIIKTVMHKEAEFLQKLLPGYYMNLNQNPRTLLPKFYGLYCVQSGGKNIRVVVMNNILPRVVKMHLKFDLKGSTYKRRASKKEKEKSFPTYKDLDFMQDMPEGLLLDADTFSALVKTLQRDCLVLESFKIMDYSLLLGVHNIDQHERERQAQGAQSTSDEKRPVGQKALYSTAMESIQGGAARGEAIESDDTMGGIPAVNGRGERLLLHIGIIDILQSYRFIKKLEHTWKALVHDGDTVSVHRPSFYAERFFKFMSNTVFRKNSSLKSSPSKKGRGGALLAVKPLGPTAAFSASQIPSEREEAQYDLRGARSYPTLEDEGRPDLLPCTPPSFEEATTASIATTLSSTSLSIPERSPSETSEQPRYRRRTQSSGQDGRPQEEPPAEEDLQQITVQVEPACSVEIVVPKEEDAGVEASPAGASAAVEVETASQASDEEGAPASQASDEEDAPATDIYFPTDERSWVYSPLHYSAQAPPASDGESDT
Text: as §1

panel of 442 kinases [3] = target: T3, panel of 442 kinases (Homo sapiens, UniProt P0C1S8); conditions: kinase WEE2; compound concentration 10 µM
T3 construct: purchased KINOMEscan
T3 sequence (P0C1S8 whole entry): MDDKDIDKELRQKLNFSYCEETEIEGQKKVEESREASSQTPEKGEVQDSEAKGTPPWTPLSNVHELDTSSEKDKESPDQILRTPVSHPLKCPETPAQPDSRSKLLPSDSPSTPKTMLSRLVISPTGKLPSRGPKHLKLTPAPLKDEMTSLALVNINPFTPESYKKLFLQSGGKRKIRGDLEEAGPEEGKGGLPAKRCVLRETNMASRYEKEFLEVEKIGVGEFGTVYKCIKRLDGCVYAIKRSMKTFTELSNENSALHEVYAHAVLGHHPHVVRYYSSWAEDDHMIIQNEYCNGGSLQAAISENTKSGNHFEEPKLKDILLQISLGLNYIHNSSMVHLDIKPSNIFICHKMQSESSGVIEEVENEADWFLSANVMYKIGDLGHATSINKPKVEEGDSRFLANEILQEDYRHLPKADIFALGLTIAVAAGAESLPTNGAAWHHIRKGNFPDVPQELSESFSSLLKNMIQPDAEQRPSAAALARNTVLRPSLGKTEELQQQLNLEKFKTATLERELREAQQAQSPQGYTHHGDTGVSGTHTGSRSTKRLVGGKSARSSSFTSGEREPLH
Text: as §1

T1 sequence (O00750 whole entry): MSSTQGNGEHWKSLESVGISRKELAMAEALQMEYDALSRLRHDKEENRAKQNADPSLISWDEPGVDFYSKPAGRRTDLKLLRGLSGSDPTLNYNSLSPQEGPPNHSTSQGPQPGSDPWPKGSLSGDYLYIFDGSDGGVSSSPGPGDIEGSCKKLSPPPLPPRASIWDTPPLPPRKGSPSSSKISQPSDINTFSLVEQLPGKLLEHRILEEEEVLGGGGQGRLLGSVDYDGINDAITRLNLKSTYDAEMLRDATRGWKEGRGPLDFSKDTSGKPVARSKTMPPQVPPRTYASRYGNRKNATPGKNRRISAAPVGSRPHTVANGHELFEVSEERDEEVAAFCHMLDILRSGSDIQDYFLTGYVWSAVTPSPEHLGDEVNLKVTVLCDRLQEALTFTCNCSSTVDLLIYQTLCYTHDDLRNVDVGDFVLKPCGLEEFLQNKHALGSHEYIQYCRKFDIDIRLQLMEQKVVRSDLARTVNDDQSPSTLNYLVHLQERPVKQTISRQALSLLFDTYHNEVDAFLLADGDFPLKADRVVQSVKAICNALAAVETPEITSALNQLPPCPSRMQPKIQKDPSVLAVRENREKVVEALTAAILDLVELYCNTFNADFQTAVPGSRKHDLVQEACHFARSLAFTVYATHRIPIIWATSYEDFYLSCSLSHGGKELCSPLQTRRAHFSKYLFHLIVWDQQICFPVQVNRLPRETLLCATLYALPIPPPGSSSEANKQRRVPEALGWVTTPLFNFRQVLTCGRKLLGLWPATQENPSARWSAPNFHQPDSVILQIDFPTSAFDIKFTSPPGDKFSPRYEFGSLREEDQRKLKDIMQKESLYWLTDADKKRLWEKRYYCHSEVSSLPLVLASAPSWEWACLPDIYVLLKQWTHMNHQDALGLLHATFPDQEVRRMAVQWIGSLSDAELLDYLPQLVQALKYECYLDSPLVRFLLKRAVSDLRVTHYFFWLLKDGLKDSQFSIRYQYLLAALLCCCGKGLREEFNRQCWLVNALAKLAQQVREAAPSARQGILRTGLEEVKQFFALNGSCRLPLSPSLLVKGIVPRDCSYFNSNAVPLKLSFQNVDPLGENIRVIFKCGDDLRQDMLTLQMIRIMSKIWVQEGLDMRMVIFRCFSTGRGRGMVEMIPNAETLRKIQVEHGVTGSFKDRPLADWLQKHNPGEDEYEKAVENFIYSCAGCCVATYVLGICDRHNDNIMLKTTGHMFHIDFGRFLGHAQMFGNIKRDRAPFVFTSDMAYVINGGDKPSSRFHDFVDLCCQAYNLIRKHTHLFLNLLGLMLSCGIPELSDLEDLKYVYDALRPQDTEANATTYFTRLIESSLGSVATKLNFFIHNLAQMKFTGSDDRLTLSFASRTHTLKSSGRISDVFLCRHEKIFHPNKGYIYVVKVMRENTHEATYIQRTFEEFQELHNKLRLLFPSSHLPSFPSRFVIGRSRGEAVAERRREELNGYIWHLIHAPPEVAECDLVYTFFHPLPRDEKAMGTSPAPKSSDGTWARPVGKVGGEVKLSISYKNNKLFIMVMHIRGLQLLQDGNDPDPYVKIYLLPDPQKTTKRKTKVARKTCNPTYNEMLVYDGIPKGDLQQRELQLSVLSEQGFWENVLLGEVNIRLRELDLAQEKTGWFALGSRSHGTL

| Compound | KINOMEscan: PIK3C2B (panel of 442 kinases [1]) | KINOMEscan: PIP5K1C (panel of 442 kinases [2]) | % Ctrl, WEE2 (panel of 442 kinases [3]) [% Ctrl] |
| --- | --- | --- | --- |
| COc1cc(C(=O)N2CCC(N3CCN(C)CC3)CC2)ccc1Nc1ncc2c(n1)N(C)c1ccccc1C(=O)N2C [15 (LRRK2-IN-1)] | 100 | 96 | 100 |
| CCOc1cc(C(=O)N2CCC(N3CCN(C)CC3)CC2)ccc1Nc1ncc2c(n1)N(C1CCCC1)c1ccccc1C(=O)N2C [Compound 26] | 100 | 100 | 100 |
| COc1cc(C(=O)N2CCC(N3CCN(C)CC3)CC2)ccc1Nc1ncc2c(n1)N1CCc3cccc(c31)C(=O)N2C [Compound 24] |  | 6.3 | 100 |
| COc1cc(C(=O)N2CCC(N3CCN(C)CC3)CC2)ccc1Nc1ncc2c(n1)N(C1CCCC1)c1ccccc1C(=O)N2C [Compound 25, 11-cyclopentyl-2-((2-methoxy-4-(4-(4-methylpiperazin-1-yl)piperidine-1-carbonyl)phenyl)amino)-5-methyl-5H-benzo[e]pyrimido[5,4-b][1,4]diazepin-6(11H)-one] | 100 | 100 | 100 |
